Reference: patent US12371454B2, “Cyclic peptide compound having Kras inhibitory action” (priority 2019, dated 2025)
Starred links: 1 amine or outer side, 2 acyl side, 3 side chain; linkers in the order of their positions; H or OH if unused. Positions of bridges follow the written chain, without caps; N, C: chain ends. Non-standard residues stand in square brackets, D forms with d. Residues, ends and D or L forms follow the SMILES beside them. *: point of attachment. hPhe(3-Cl-4-CF3) = N[C@@H](CCc1ccc(C(F)(F)F)c(Cl)c1)C(=O)O; NMePhe(3-CF3) = CN[C@@H](Cc1cccc(C(F)(F)F)c1)C(=O)O; NMePhe(2-CF3) = CN[C@@H](Cc1ccccc1C(F)(F)F)C(=O)O; NMePhe(4-Br) = CN[C@@H](Cc1ccc(Br)cc1)C(=O)O; NMePhe(4-F) = CN[C@@H](Cc1ccc(F)cc1)C(=O)O; NMePhe(2-Me) = CN[C@@H](Cc1ccccc1C)C(=O)O; NMedβ3hAla = C[C@H](CC(=O)[*:2])N(C)[*:1]; NMePhe(2-F) = CN[C@@H](Cc1ccccc1F)C(=O)O; NMeY = CN[C@@H](Cc1ccc(O)cc1)C(=O)O; NMeD = CN[C@@H](CC(=O)O)C(=O)O; NMeL = CN[C@@H](CC(C)C)C(=O)O; NMeV = CN[C@H](C(=O)O)C(C)C; Piperidide = C1CCN(*)CC1; Ac5c = NC1(C(=O)O)CCCC1; Sar = CNCC(=O)O

Experiments:
[1] = biological target: T1, Kras and SOS1 (biotin-tagged human Kras loaded with GDP, His-tagged human SOS1) (Homo sapiens, UniProt P01116, G12D); assay: Protein-protein interaction inhibition between Kras and SOS1 (KrasGl2D-SOS PPI) using AlphaScreen; type: binding; details: AlphaScreen; biotin-tagged human Kras loaded with GDP, His-tagged human SOS1; read-out: KRAS G12D-SOS PPI IC50
T1 construct: made in house; host or cells: E. coli (stated for Kras only)
Summary of the method: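 Kras was produced in E. coli, purified, then loaded with GDP. It was paired via streptavidin acceptor beads with His-SOS1 held on nickel donor beads, and proximity signal at 520-620 nm was read after 680 nm illumination.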

[2] = test system: Human pancreatic cancer cell line AsPC-1; assay: Measurement of AsPC-1 cell growth inhibition (AsPC-1 CGI); type: cell-based; details: 96 h
Summary of the method: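 AsPC-1 cells in 15% FBS RPMI-1640 were exposed to test compound for 96 hours at 37° C, with CellTiter-Glo as endpoint.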

T1 sequence (P01116 1-188 isoform P01116-2 G12D): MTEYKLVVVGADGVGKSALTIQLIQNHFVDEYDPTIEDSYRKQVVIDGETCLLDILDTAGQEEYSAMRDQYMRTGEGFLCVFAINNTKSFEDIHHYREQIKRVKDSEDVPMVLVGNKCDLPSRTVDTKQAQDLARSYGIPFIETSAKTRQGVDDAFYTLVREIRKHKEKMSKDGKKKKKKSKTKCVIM

Compound	IC50 [1]	IC50 [2]
CC[C@H](C)[C@@H]1NC(=O)[C@H](CC(C)C)N(C)C(=O)C[C@@H](C)N(C)C(=O)[C@H](C(C)C)N(C)C(=O)C2(CCCC2)NC(=O)[C@@H]2CCCN2C(=O)[C@H](CCc2ccc(C(F)(F)F)c(Cl)c2)NC(=O)CN(C)C(=O)[C@H](Cc2ccc(F)cc2)N(C)C(=O)CN(C)C(=O)CN(C)C1=O [Compound 1571] (cyclo([Ac5c][NMeV][NMedβ3hAla][NMeL]I[Sar][Sar][NMePhe(4-F)][Sar][hPhe(3-Cl-4-CF3)]P))	4.8 nM	50 to 100 nM
CC[C@H](C)[C@@H]1NC(=O)[C@H](CC(C)C)N(C)C(=O)C[C@@H](C)N(C)C(=O)[C@H](C(C)C)N(C)C(=O)C2(CCCC2)NC(=O)[C@@H]2CCCN2C(=O)[C@H](CCc2ccc(C(F)(F)F)c(Cl)c2)NC(=O)CN(C)C(=O)[C@H](Cc2cccc(C(F)(F)F)c2)N(C)C(=O)CN(C)C(=O)CN(C)C1=O [Compound 1572] (cyclo([Ac5c][NMeV][NMedβ3hAla][NMeL]I[Sar][Sar][NMePhe(3-CF3)][Sar][hPhe(3-Cl-4-CF3)]P))	9.8 nM	50 to 100 nM
CC[C@H](C)[C@@H]1NC(=O)[C@H](CC(C)C)N(C)C(=O)C[C@@H](C(=O)N2CCCCC2)N(C)C(=O)[C@H](C(C)C)N(C)C(=O)C2(CCCC2)NC(=O)[C@@H]2CCCN2C(=O)[C@H](CCc2ccc(C(F)(F)F)c(Cl)c2)NC(=O)CN(C)C(=O)[C@H](Cc2ccc(Br)cc2)N(C)C(=O)CN(C)C(=O)CN(C)C1=O [Compound 1576] ([NMeL]I[Sar][Sar][NMePhe(4-Br)][Sar][hPhe(3-Cl-4-CF3)]P[Ac5c][NMeV][NMeD]-Piperidide; lactam N-11)	5.1 nM	100 to 500 nM
CC[C@H](C)[C@@H]1NC(=O)[C@H](CC(C)C)N(C)C(=O)C[C@@H](C(=O)N2CCCCC2)N(C)C(=O)[C@H](C(C)C)N(C)C(=O)C2(CCCC2)NC(=O)[C@@H]2CCCN2C(=O)[C@H](CCc2ccc(C(F)(F)F)c(Cl)c2)NC(=O)CN(C)C(=O)[C@H](Cc2ccccc2C(F)(F)F)N(C)C(=O)CN(C)C(=O)CN(C)C1=O [Compound 1579] ([NMeL]I[Sar][Sar][NMePhe(2-CF3)][Sar][hPhe(3-Cl-4-CF3)]P[Ac5c][NMeV][NMeD]-Piperidide; lactam N-11)	8.2 nM	100 to 500 nM
CC[C@H](C)[C@@H]1NC(=O)[C@H](CC(C)C)N(C)C(=O)C[C@@H](C(=O)N2CCCCC2)N(C)C(=O)[C@H](C(C)C)N(C)C(=O)C2(CCCC2)NC(=O)[C@@H]2CCCN2C(=O)[C@H](CCc2ccc(C(F)(F)F)c(Cl)c2)NC(=O)CN(C)C(=O)[C@H](Cc2ccccc2F)N(C)C(=O)CN(C)C(=O)CN(C)C1=O [Compound 1583] ([NMeL]I[Sar][Sar][NMePhe(2-F)][Sar][hPhe(3-Cl-4-CF3)]P[Ac5c][NMeV][NMeD]-Piperidide; lactam N-11)	12 nM	100 to 500 nM
CC[C@H](C)[C@@H]1NC(=O)[C@H](CC(C)C)N(C)C(=O)C[C@@H](C(=O)N2CCCCC2)N(C)C(=O)[C@H](C(C)C)N(C)C(=O)C2(CCCC2)NC(=O)[C@@H]2CCCN2C(=O)[C@H](CCc2ccc(C(F)(F)F)c(Cl)c2)NC(=O)CN(C)C(=O)[C@H](Cc2ccccc2C)N(C)C(=O)CN(C)C(=O)CN(C)C1=O [Compound 1584] ([NMeL]I[Sar][Sar][NMePhe(2-Me)][Sar][hPhe(3-Cl-4-CF3)]P[Ac5c][NMeV][NMeD]-Piperidide; lactam N-11)	9.5 nM	100 to 500 nM
CC[C@H](C)[C@@H]1NC(=O)[C@H](CC(C)C)N(C)C(=O)C[C@@H](C(=O)N2CCCCC2)N(C)C(=O)[C@H](C(C)C)N(C)C(=O)C2(CCCC2)NC(=O)[C@@H]2CCCN2C(=O)[C@H](CCc2ccc(C(F)(F)F)c(Cl)c2)NC(=O)CN(C)C(=O)[C@H](Cc2ccc(OC)cc2)N(C)C(=O)CN(C)C(=O)CN(C)C1=O [Compound 1588] ([NMeL]I[Sar][Sar][NMeY](Me)[Sar][hPhe(3-Cl-4-CF3)]P[Ac5c][NMeV][NMeD]-Piperidide; lactam N-11)	4.1 nM	100 to 500 nM
CC[C@H](C)[C@@H]1NC(=O)[C@H](CC(C)C)N(C)C(=O)C[C@@H](C)N(C)C(=O)[C@H](C(C)C)N(C)C(=O)C2(CCCC2)NC(=O)[C@@H]2CCCN2C(=O)[C@H](CCc2ccc(C(F)(F)F)c(Cl)c2)NC(=O)CN(C)C(=O)[C@H](COc2ccccc2Cl)N(C)C(=O)CN(C)C(=O)CN(C)C1=O [Compound 1589]	39 nM	100 to 500 nM
CC[C@H](C)[C@@H]1NC(=O)[C@H](CC(C)C)N(C)C(=O)C[C@@H](C)N(C)C(=O)[C@H](C(C)C)N(C)C(=O)C2(CCCC2)NC(=O)[C@@H]2CCCN2C(=O)[C@H](CCc2ccc(C(F)(F)F)c(Cl)c2)NC(=O)CN(C)C(=O)[C@H](Cc2ccc(Br)cc2)N(C)C(=O)CN(C)C(=O)CN(C)C1=O [Compound 1590] (cyclo([Ac5c][NMeV][NMedβ3hAla][NMeL]I[Sar][Sar][NMePhe(4-Br)][Sar][hPhe(3-Cl-4-CF3)]P))	3.2 nM	50 to 100 nM
